The target of assay [1] is T1, serotonin (5-HT) reuptake (Rattus norvegicus, UniProt P31652).
T1 construct: synaptosomes are freshly isolated from areas of the rat brain; from tissue; host or cells: rat brain synaptosomes (P2 fraction)
The assay is described as follows: Inhibition of serotonin (5HT) reuptake in synaptosomes from rat brain. The format is biochemical. Particulars: test concentration of 10 μM; read-out: 5-HT (inhibition of reuptake of serotonin, % inhibition). An outline of the steps:
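Compounds screened at 10 μM and reported as percent inhibition of serotonin uptake. Uptake measured in a freshly prepared P2 synaptosomal fraction from rat brain.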

In assay [2] the target is T2, human bradykinin 1 receptor (B1R) (Homo sapiens, UniProt P46663).
T2 construct: expressed in transfected cells; host or cells: CHO K1 cells
T2 sequence (P46663 1-353): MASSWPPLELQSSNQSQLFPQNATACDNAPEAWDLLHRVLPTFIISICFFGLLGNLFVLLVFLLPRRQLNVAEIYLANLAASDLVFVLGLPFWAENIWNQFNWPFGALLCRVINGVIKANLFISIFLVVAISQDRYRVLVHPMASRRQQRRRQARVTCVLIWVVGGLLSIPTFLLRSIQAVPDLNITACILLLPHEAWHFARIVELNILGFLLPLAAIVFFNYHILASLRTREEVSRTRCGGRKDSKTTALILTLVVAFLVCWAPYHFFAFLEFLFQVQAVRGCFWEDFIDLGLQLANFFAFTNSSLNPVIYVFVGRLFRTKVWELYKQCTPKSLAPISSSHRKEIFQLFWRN
Briefly: Functional investigation on the human bradykinin 1 receptor (B1R), Ca2+ FLIPR assay in CHO K1 hB1R cells. The format is cell-based. Particulars: CHO-K1, B1R antagonism human; test substance 10 μM; Ca2+ FLIPR, CHO K1 hB1R cells; read-out: B1R Ant. h [10 μM] % Inhibition. An outline of the steps:
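Fluo-4 Ca2+ readout, peak fluorescence. Stable CHO K1 transfectants; compound pre-incubated 10-20 min, then EC80 agonist—Lys-Des-Arg9-BK for hB1R, Des-Arg9-BK for rB1R. % inhibition vs maximal inhibition; IC50 from multiple concentrations, duplicate/triplicate, ≥2 independent runs.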

We go through 22 compounds from patent publication US8106055B2, “Substituted amide compounds” (Gruenenthal GmbH, priority 2007, dated 2012).

One may read the inhibition as the drop in the measured response relative to a control, in per cent.

T1 sequence (P31652 whole entry): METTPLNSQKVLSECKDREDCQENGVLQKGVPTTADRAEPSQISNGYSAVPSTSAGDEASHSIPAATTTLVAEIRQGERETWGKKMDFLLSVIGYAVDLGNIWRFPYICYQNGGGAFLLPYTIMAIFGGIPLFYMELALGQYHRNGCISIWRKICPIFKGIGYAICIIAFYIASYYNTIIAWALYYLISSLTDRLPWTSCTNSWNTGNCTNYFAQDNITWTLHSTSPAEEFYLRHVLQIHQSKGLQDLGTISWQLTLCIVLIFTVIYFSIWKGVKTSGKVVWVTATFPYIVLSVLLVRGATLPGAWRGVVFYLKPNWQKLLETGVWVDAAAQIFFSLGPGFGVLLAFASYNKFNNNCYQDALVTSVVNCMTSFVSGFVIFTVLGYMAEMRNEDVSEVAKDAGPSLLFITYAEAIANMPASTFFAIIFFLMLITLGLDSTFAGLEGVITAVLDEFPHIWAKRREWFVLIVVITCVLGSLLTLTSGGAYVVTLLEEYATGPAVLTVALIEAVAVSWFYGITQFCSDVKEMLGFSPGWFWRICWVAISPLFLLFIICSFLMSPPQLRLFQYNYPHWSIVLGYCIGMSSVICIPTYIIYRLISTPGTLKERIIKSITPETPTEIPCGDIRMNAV

On to `COc1cc(C)c(S(=O)(=O)N2CCC(OCC(=O)NCC3CCC(C(c4ccccc4)N(C)C)CC3)CC2)c(C)c1C` (centres unmarked) [Example 143, N-((4-((dimethylamino)(phenyl)methyl)cyclohexyl)methyl)-2-(1-(4-methoxy-2,3,6-trimethylphenylsulfonyl)piperidin-4-yloxy)acetamide], for which the inhibition at 10 µM was 93% in assay [1] and 11% in assay [2].
The matching figures for `COc1ccc(S(=O)(=O)N2CCCCC2COCC(=O)NCCC2CCC(C(c3cccs3)N(C)C)CC2)cc1` (centres unmarked) [Example 30, N-(2-(4-((dimethylamino)(thiophen-2-yl)methyl)cyclohexyl)ethyl)-2-((1-(4-methoxyphenylsulfonyl)piperidin-2-yl)methoxy)acetamide]: 98% and 81%.
In the same order, the values of `CN(C)C(c1cccc(F)c1)C1CCC(CNC(=O)COCCN(C)S(=O)(=O)c2c(Cl)cc(Cl)cc2Cl)CC1` (centres unmarked) [Example 188, N-((4-((dimethylamino)(3-fluorophenyl)methyl)cyclohexyl)methyl)-2-(2-(2,4,6-trichloro-N-methylphenylsulfonamido)ethoxy)acetamide] are 98% and 102%.
On to `COc1ccc(S(=O)(=O)N(C)CCOCC(=O)NCC2CCC(C(c3cccs3)N(C)C)CC2)cc1` (centres unmarked) [Example 142, N-((4-((dimethylamino)(thiophen-2-yl)methyl)cyclohexyl)methyl)-2-(2-(4-methoxy-N-methylphenylsulfonamido)ethoxy)acetamide], for which the inhibition at 10 µM in assay [1] amounted to 70%; in assay [2], 50%.
On to `COc1ccc(S(=O)(=O)N2Cc3ccccc3CC2COCC(=O)NCC2CCC(C(c3ccccc3)N(C)C)CC2)cc1` (centres unmarked) [Example 19, N-((4-((dimethylamino)(phenyl)methyl)cyclohexyl)methyl)-2-((2-(4-methoxyphenylsulfonyl)-1,2,3,4-tetrahydroisoquinolin-3-yl)methoxy)acetamide], for which the inhibition at 10 µM came out at 92% in assay [1] and 63% in assay [2].
On to `COc1cc(C)c(S(=O)(=O)N2CCC(OCC(=O)NCCC3CCC(C(c4cccs4)N(C)C)CC3)C2)c(C)c1` (centres unmarked) [Example 199, N-(2-(4-((dimethylamino)(thiophen-2-yl)methyl)cyclohexyl)ethyl)-2-(1-(4-methoxy-2,6-dimethylphenylsulfonyl)pyrrolidin-3-yloxy)acetamide], for which the inhibition at 10 µM came out at 96% in assay [1] and 104% in assay [2].
As for `COc1cc(C)c(S(=O)(=O)N2CCC(OCC(=O)NC3CCC(C(c4cccc(F)c4)N(C)C)CC3)C2)c(C)c1C` (centres unmarked) [Example 189, N-(4-((dimethylamino)(3-fluorophenyl)methyl)cyclohexyl)-2-(1-(4-methoxy-2,3,6-trimethylphenylsulfonyl)pyrrolidin-3-yloxy)acetamide], the inhibition at 10 µM in assay [1] stood at 96%; in assay [2] it was 47%.
On to `COc1ccc(S(=O)(=O)N2CCCCC2COCC(=O)NCC2CCC(C(c3ccccc3)N(C)C)CC2)cc1OC` (centres unmarked) [Example 150, 2-((1-(3,4-Dimethoxyphenylsulfonyl)piperidin-2-yl)methoxy)-N-((4-((dimethylamino)(phenyl)methyl)cyclohexyl)methyl)acetamide], for which the inhibition at 10 µM in assay [1] was 94%; in assay [2], 4%.
In the same order, the values of `COc1cc(C)c(S(=O)(=O)N(CCOCC(=O)NCCC2CCC(C(c3cccs3)N(C)C)CC2)Cc2ccccc2)c(C)c1` (centres unmarked) [Example 149, 2-(2-(N-benzyl-4-methoxy-2,6-dimethylphenylsulfonamido)ethoxy)-N-(2-(4-((dimethylamino) (thiophen-2-yl)methyl)cyclohexyl)ethyl)acetamide] are 91% and 72%.
Consider `CCN(CCOCC(=O)NCC1CCC(C(c2cccs2)N(C)C)CC1)S(=O)(=O)c1c(C)cc(OC)c(C)c1C` (centres unmarked) [Example 16, N-((4-((dimethylamino)(thiophen-2-yl)methyl)cyclohexyl)methyl)-2-(2-(N-ethyl-4-methoxy-2,3,6-trimethylphenylsulfonamido)ethoxy)acetamide], for which the inhibition at 10 µM is 98% in assay [1] and 86% in assay [2].
In the same order, the values of `CN(C)C(c1cccc(F)c1)C1CCC(CNC(=O)COCCN(C)S(=O)(=O)c2ccc(Cl)cc2)CC1` (centres unmarked) [Example 158, 2-(2-(4-chloro-N-methylphenylsulfonamido)ethoxy)-N-((4-((dimethylamino)(3-fluorophenyl)methyl)cyclohexyl)methyl)acetamide] are 91% and 20%.
For `COc1cc(C)c(S(=O)(=O)N(CCOCC(=O)NCC2CCC(C(c3ccccc3)N(C)C)CC2)Cc2ccccc2)c(C)c1` (centres unmarked) [Example 148, 2-(2-(N-benzyl-4-methoxy-2,6-dimethylphenylsulfonamido)ethoxy)-N-((4-((dimethylamino)(phenyl)methyl)cyclohexyl)methyl)acetamide], the inhibition at 10 µM stood at 95% in assay [1] and 92% in assay [2].
Turning to `CN(C)C(c1cccs1)C1CCC(CCNC(=O)COC2CCN(S(=O)(=O)c3ccc(Cl)cc3Cl)C2)CC1` (centres unmarked) [Example 21, 2-(1-(2,4-dichlorophenylsulfonyl)pyrrolidin-3-yloxy)-N-(2-(4-((dimethylamino)(thiophen-2-yl)methyl)cyclohexyl)ethyl)acetamide], the inhibition at 10 µM in assay [1] was 94%; in assay [2], 88%.
In the case of `COc1ccc(S(=O)(=O)N2CCCCC2COCC(=O)NCCC2CCC(C(c3cccc(F)c3)N(C)C)CC2)cc1` (centres unmarked) [Example 180, N-(2-(4-((dimethylamino)(3-fluorophenyl)methyl)cyclohexyl)ethyl)-2-((1-(4-methoxyphenylsulfonyl)piperidin-2-yl)methoxy)acetamide], the inhibition at 10 µM in assay [1] was determined as 93%; in assay [2], 62%.
With `CN(C)C(c1cccc(F)c1)C1CCC(CCNC(=O)COCCN(C)S(=O)(=O)c2c(Cl)cc(Cl)cc2Cl)CC1` (centres unmarked) [Example 174, N-(2-(4-((dimethylamino)(3-fluorophenyl)methyl)cyclohexyl)ethyl)-2-(2-(2,4,6-trichloro-N-methylphenylsulfonamido)ethoxy)acetamide], the inhibition at 10 µM in assay [1] is 97%; in assay [2] it was 103%.
As for `CN(C)C(c1ccccc1)C1CCC(NC(=O)COCCN(C)S(=O)(=O)c2ccc(Cl)cc2Cl)CC1` (centres unmarked) [Example 33, 2-(2-(2,4-dichloro-N-methylphenylsulfonamido)ethoxy)-N-(4-((dimethylamino)(phenyl)methyl)cyclohexyl)acetamide], the inhibition at 10 µM in assay [1] was found to be 73%; in assay [2], 77%.
`CN(C)C(c1cccc(F)c1)C1CCC(CNC(=O)COC2CCN(S(=O)(=O)c3cccc(C(F)(F)F)c3)C2)CC1` (centres unmarked) [Example 170, N-((4-((dimethylamino)(3-fluorophenyl)methyl)cyclohexyl)methyl)-2-(1-(3-(trifluoromethyl)phenylsulfonyl)pyrrolidin-3-yloxy)acetamide]: the inhibition at 10 µM in assay [1] amounted to 89%; in assay [2], 8%.
The matching figures for `COc1cc(C)c(S(=O)(=O)N2CCC(OCC(=O)NC3CCC(C(c4ccccc4)N(C)C)CC3)C2)c(C)c1` (centres unmarked) [Example 165, N-(4-((dimethylamino)(phenyl)methyl)cyclohexyl)-2-(1-(4-methoxy-2,6-dimethylphenylsulfonyl)pyrrolidin-3-yloxy)acetamide]: 20% and 98%.
In the same order, the values of `CN(C)C(c1cccc(F)c1)C1CCC(CCNC(=O)COCCN(C)S(=O)(=O)c2ccc(Cl)cc2)CC1` (centres unmarked) [Example 186, 2-(2-(4-chloro-N-methylphenylsulfonamido)ethoxy)-N-(2-(4-((dimethylamino)(3-fluorophenyl)methyl)cyclohexyl)ethyl)acetamide] are 88% and 23%.
Regarding `COc1ccc(S(=O)(=O)N2CCC(OCC(=O)NCC3CCC(C(c4cccc(F)c4)N(C)C)CC3)C2)cc1OC` (centres unmarked) [Example 184, 2-(1-(3,4-dimethoxyphenylsulfonyl)pyrrolidin-3-yloxy)-N-((4-((dimethylamino)(3-fluorophenyl)methyl)cyclohexyl)methyl)acetamide], the inhibition at 10 µM is 88% in assay [1] and -29% in assay [2].
In the same order, the values of `CN(C)C(c1cccs1)C1CCC(CNC(=O)COC2CCN(S(=O)(=O)c3cccc(C(F)(F)F)c3)C2)CC1` (centres unmarked) [Example 25, N-((4-((dimethylamino)(thiophen-2-yl)methyl)cyclohexyl)methyl)-2-(1-(3-(trifluoromethyl)phenylsulfonyl)pyrrolidin-3-yloxy)acetamide] are 82% and -6%.
Take `CCN(CCOCC(=O)NC1CCC(C(c2cccc(F)c2)N(C)C)CC1)S(=O)(=O)c1c(C)cc(OC)c(C)c1C` (centres unmarked) [Example 176, N-(4-((dimethylamino)(3-fluorophenyl)methyl)cyclohexyl)-2-(2-(N-ethyl-4-methoxy-2,3,6-trimethylphenylsulfonamido)ethoxy)acetamide]: the inhibition at 10 µM in assay [1] stood at 90%; in assay [2], 64%.
